# Results taken from US12617785B2, “Pyrrolo[2,3-b]pyridine-3-carboxamide compositions and methods for ameliorating hearing loss” (priority 2020, dated 2026).
# Where a name gives a salt, the structure may show the parent alone.
# Columns and labels:
# [1] = system: adult utricular supporting cells; assay: EdU proliferation assay in cultured adult utricles; type: cell-based, mice; details: after 5 days of treatment; control=20; p=0.021
# Experimental: (§1) The compound T01 was tested extensively to explore its mechanism of action and its utility in regenerating hair cells of the ear. The effects of the compounds were tested on utricles isolated from mice eight to twelve weeks of age. Internal ears were dissected from mice euthanized with fluothane and placed into ice-cold Hank's balanced salt solution, and cultured as previously described by Gnedeva, K. & Hudspeth [Proc. Natl. Acad. Sci. 112, 14066-14071 (2015)].
# For proliferation assays, utricles were cultured with 10 μM 5-ethynyl-2′-deoxyuridine (EdU) that was detected with click chemistry.
# (§2) ; T01-treated=250 EdU+ supporting cells; […]
# Yap = Yap phosphorylation by western blot in cultured utricles; type: cell-based; details: utricles from adult mice
# Experimental: as §1, §2
# Lats1 [2] = biological target: T1, Lats1 (Homo sapiens, UniProt O95835); assay: In vitro kinase assay (HTRF KinEASE-STK S1) Lats1, 10 uM ATP; type: biochemical
# T1 construct: purchased Carna 01-123
# T1 sequence (O95835 1-1130): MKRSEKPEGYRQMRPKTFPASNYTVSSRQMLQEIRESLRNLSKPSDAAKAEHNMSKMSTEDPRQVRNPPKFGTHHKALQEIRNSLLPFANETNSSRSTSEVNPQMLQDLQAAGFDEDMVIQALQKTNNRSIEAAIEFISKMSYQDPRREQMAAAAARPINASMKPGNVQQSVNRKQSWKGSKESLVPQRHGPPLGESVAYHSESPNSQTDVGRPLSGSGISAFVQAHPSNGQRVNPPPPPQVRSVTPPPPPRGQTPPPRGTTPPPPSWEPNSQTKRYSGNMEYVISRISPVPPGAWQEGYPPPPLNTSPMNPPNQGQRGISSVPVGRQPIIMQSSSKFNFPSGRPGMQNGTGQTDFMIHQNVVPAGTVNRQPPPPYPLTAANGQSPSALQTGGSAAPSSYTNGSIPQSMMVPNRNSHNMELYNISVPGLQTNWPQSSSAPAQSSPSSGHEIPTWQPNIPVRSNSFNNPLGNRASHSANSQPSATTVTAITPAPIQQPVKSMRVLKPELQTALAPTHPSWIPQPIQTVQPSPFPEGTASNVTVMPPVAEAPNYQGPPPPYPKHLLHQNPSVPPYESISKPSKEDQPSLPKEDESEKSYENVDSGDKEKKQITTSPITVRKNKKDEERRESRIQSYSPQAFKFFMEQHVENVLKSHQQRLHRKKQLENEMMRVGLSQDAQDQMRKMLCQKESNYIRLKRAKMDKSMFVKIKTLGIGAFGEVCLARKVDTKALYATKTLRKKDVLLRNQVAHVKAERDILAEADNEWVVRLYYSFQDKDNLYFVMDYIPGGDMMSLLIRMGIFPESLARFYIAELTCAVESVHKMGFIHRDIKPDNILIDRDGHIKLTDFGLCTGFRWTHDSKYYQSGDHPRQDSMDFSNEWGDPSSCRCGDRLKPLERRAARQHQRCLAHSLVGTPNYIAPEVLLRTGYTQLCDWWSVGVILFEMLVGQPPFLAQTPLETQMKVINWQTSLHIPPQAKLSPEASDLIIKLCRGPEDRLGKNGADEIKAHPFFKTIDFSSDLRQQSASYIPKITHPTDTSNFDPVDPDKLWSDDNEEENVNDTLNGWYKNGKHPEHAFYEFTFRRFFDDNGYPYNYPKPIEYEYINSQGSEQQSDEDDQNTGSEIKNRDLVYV
# Experimental: IVKA assay at 10 uM method:
# (§3) Reactions were conducted with 10 μM STK1 substrate and 10 μM ATP or 2 mM ATP as shown below. […] The enzyme, substrate, ATP, and test compound of the invention were combined in a low-volume 384-well plate and shaken for 50 min at room temperature, unless otherwise indicated. The reaction was stopped by adding the detection reagents, which were prepared at an 8:1 biotin:streptavidin ratio and shaking for 60 min at room temperature. All reactions were conducted in triplicate and a Synergy NEO (Biotek) was used to detect the signal.
# Lats1 [3] = biological target: T1, Lats1; assay: In vitro kinase assay (HTRF KinEASE-STK S1) Lats1, 2 mM ATP; type: biochemical
# Experimental: as §3
# Assay was carried out in a 384 well plate. Each drug dosage curve was done with 16 points of 3-fold dilutions in 100% DMSO, and triplicate.
# [4] = 10 uM ATP, read-out: LATS1_HTRF_10 uM ATP IC50
# [5] = 2 mM ATP, read-out: LATS1_HTRF_2 mM ATP IC50
smiles,measurement,setting,value
"O=C(/N=c1\sccn1Cc1ccccc1)c1c[nH]c2ncccc12 [T01, (Z)—N-(3-benzylthiazol-2(3H)-ylidene)-1H-pyrrolo[2,3-b]pyridine-3-carboxamide]",EdU+ supporting cells,[1],250
same,level of Yap phosphorylation as detected by western blot,Yap,striking reduction
Cc1ccc2c(C(=O)/N=c3\sccn3Cc3ccccc3)c[nH]c2n1 [T02],IC50,Lats1 [2]; [4],5840 nM
Cc1cnc2[nH]cc(C(=O)/N=c3\sccn3Cc3ccccc3)c2c1 [T03],IC50,Lats1 [2]; [4],148 nM
Cc1[nH]c2ncccc2c1C(=O)/N=c1\sccn1Cc1ccccc1 [T04],IC50,Lats1 [2]; [4],159 nM
O=C(/N=c1\sccn1Cc1ccccc1)c1c[nH]c2ncc(Cl)cc12 [T06],IC50,Lats1 [2]; [4],92.2 nM
O=C(/N=c1\sccn1-c1ccccc1)c1c[nH]c2ncccc12 [T14],IC50,Lats1 [3]; [5],3 nM
same,IC50,Lats1 [2]; [4],0.3 nM
O=C(/N=c1\occn1Cc1ccccc1)c1c[nH]c2ncccc12 [T25],IC50,Lats1 [3]; [5],59.2 nM
same,IC50,Lats1 [2]; [4],1.9 nM
Cc1cn(Cc2ccccc2)/c(=N/C(=O)c2c[nH]c3ncccc23)s1 [T26],IC50,Lats1 [2]; [4],74.5 nM
COC(=O)c1cccc(Cn2ccs/c2=N\C(=O)c2c[nH]c3ncccc23)c1 [T33],IC50,Lats1 [2]; [4],224 nM
O=C(O)c1cccc(Cn2ccs/c2=N\C(=O)c2c[nH]c3ncccc23)c1 [T34],IC50,Lats1 [2]; [4],6250 nM
"Cn1ccs/c1=N\C(=O)c1c[nH]c2ncccc12 [T37, (Z)—N-(3-methylthiazol-2(3H)-ylidene)-1H-pyrrolo[2,3-b]pyridine-3-carboxamide]",IC50,Lats1 [2]; [4],233 nM
"CCn1ccs/c1=N\C(=O)c1c[nH]c2ncccc12 [T38, (Z)—N-(3-ethylthiazol-2(3H)-ylidene)-1H-pyrrolo[2,3-b]pyridine-3-carboxamide]",IC50,Lats1 [2]; [4],27 nM
"CC(c1ccccc1)n1ccs/c1=N\C(=O)c1c[nH]c2ncccc12 (stereo not shown) [T39, (Z)—N-(3-(1-Phenylethyl)thiazol-2(3H)-ylidene)-1H-pyrrolo[2,3-b]pyridine-3-carboxamide]",IC50,Lats1 [3],59.2 nM
same,IC50,Lats1 [2],1.9 nM
O=C(/N=c1\sccn1CCc1ccccc1)c1c[nH]c2ncccc12 [T40],IC50,Lats1 [2]; [4],88.7 nM
"CC(N)CCn1ccs/c1=N\C(=O)c1c[nH]c2ncccc12 (stereo not shown) [T41, (Z)—N-(3-(3-aminobutyl)thiazol-2(3H)-ylidene)-1H-pyrrolo[2,3-b]pyridine-3-carboxamide]",IC50,Lats1 [3]; [5],303 nM
same,IC50,Lats1 [2]; [4],4.4 nM
"N#Cc1ccccc1Cn1ccs/c1=N\C(=O)c1c[nH]c2ncccc12 [T42, (Z)—N-(3-(2-cyanobenzyl)thiazol-2(3H)-ylidene)-1H-pyrrolo[2,3-b]pyridine-3-carboxamide]",IC50,Lats1 [2]; [4],12.9 nM
"NCc1ccccc1Cn1ccs/c1=N\C(=O)c1c[nH]c2ncccc12 [T43, (Z)—N-(3-(2-(aminomethyl)benzyl)thiazol-2(3H)-ylidene)-1H-pyrrolo[2,3-b]pyridine-3-carboxamide]",IC50,Lats1 [3]; [5],141 nM
same,IC50,Lats1 [2]; [4],2.2 nM
"N#Cc1cccc(Cn2ccs/c2=N\C(=O)c2c[nH]c3ncccc23)c1 [T44, (Z)—N-(3-(3-cyanobenzyl)thiazol-2(3H)-ylidene)-1H-pyrrolo[2,3-b]pyridine-3-carboxamide]",IC50,Lats1 [2]; [4],260 nM
"NCc1cccc(Cn2ccs/c2=N\C(=O)c2c[nH]c3ncccc23)c1 [T45, (Z)—N-(3-(3-(aminomethyl)benzyl)thiazol-2(3H)-ylidene)-1H-pyrrolo[2,3-b]pyridine-3-carboxamide]",IC50,Lats1 [3]; [5],309 nM
same,IC50,Lats1 [2]; [4],30.7 nM
"N#Cc1ccc(Cn2ccs/c2=N\C(=O)c2c[nH]c3ncccc23)cc1 [T46, (Z)—N-(3-(4-cyanobenzyl)thiazol-2(3H)-ylidene)-1H-pyrrolo[2,3-b]pyridine-3-carboxamide]",IC50,Lats1 [2]; [4],391 nM
"NCc1ccc(Cn2ccs/c2=N\C(=O)c2c[nH]c3ncccc23)cc1 [T47, (Z)—N-(3-(4-(aminomethyl)benzyl)thiazol-2(3H)-ylidene)-1H-pyrrolo[2,3-b]pyridine-3-carboxamide]",IC50,Lats1 [2]; [4],83.2 nM
"O=Cc1ccc(Cn2ccs/c2=N\C(=O)c2c[nH]c3ncccc23)cc1 [T48, (Z)—N-(3-(4-formylbenzyl)thiazol-2(3H)-ylidene)-1H-pyrrolo[2,3-b]pyridine-3-carboxamide]",IC50,Lats1 [2],800 nM
Cc1cs/c(=N\C(=O)c2c[nH]c3ncccc23)n1Cc1ccccc1 [T49],IC50,Lats1 [3],0.5 nM
same,IC50,Lats1 [2],2.7 nM
Cn1nccc1Cn1ccs/c1=N\C(=O)c1c[nH]c2ncccc12 [T58],IC50,Lats1 [2]; [4],128 nM
"O=C(/N=c1\scc(CO)n1Cc1ccccc1)c1c[nH]c2ncccc12 [T72, (Z)—N-(3-benzyl-4-(hydroxymethyl)thiazol-2(3H)-ylidene)-1H-pyrrolo[2,3-b]pyridine-3-carboxamide]",IC50,Lats1 [3],0.2 nM
Cc1cs/c(=N\C(=O)c2c[nH]c3ncccc23)n1CC1CCCCC1 [T73],IC50,Lats1 [3]; [5],0.8 nM
Cc1cs/c(=N\C(=O)c2c[nH]c3ncccc23)n1C1CCCCC1 [T74],IC50,Lats1 [3],0.2 nM
"O=C(/N=c1\sccn1C1CCNCC1)c1c[nH]c2ncccc12 [T75, (Z)—N-(3-(piperidin-4-yl)thiazol-2(3H)-ylidene)-1H-pyrrolo[2,3-b]pyridine-3-carboxamide hydrochloride]",IC50,Lats1 [3],92.5 nM
O=C(/N=c1\sccn1C1CCOCC1)c1c[nH]c2ncccc12 [T76],IC50,Lats1 [3],2190 nM
"Cc1co/c(=N\C(=O)c2c[nH]c3ncccc23)n1Cc1ccccc1 [T77, (Z)—N-(3-benzyl-4-methyloxazol-2(3H)-ylidene)-1H-pyrrolo[2,3-b]pyridine-3-carboxamide]",IC50,Lats1 [3]; [5],107 nM
"O=C(/N=c1\occ(CO)n1Cc1ccccc1)c1c[nH]c2ncccc12 [T78, (Z)—N-(3-benzyl-4-(hydroxymethyl)oxazol-2(3H)-ylidene)-1H-pyrrolo[2,3-b]pyridine-3-carboxamide]",IC50,Lats1 [3]; [5],1.6 nM
"CCOC(=O)c1cs/c(=N\C(=O)c2c[nH]c3ncccc23)n1Cc1ccccc1 [T79, Ethyl (2Z)-3-benzyl-2-(1H-pyrrolo[2,3-b]pyridine-3-carbonylimino)thiazole-4-carboxylate]",IC50,Lats1 [3],22 nM
"CN(C)CCNC(=O)c1cs/c(=N\C(=O)c2c[nH]c3ncccc23)n1Cc1ccccc1 [T80, (Z)-3-Benzyl-N-[2-(dimethylamino)ethyl]-2-(1H-pyrrolo[2,3-b]pyridine-3-carbonylimino)thiazole-4-carboxamide]",IC50,Lats1 [3],82 nM
CNC(=O)c1cs/c(=N\C(=O)c2c[nH]c3ncccc23)n1-c1ccccc1Cl [T81],IC50,Lats1 [3]; [5],3.67 nM
CN(C)C(=O)c1cs/c(=N\C(=O)c2c[nH]c3ncccc23)n1-c1ccccc1Cl [T82],IC50,Lats1 [3],20 nM
